Assay results reported in patent US20070099905A1, “Combinations of drugs for the treatment of neoplasms” (priority 2002, published 2007).
Values joined by “and” are separate entries in the source; they are usually repeats but may differ in a detail not shown here. Identical values can stand only once. Like-named read-outs stand apart in the source and are kept apart here.

Experiments:
[1] = tested on: HCT 116; assay: HCT 116 human colon cancer xenograft model; assay type: in vivo, SCID mice; details: 25 mg/Kg (M-F)
Procedure: (§1) All experiments were carried out using male or female 6-8 week old SCID Hsd:ICR(CD-1) mice (Harlan, Indianapolis, Ind.). A-549 cells were harvested, resuspended in DMEM minus serum, and injected subcutaneously into the right flanks (4×10^6 cells/flank in a 300 μL volume). HCT 116 cells were harvested, resuspended in McCoy's 5A minus serum, and injected subcutaneously into the right and left flanks (5×10^6 cells/flank in a 300 μL volume). Tumor volumes were determined by measuring the length (1) and the width (w) and calculating the volume (V=1 w^2/2). Depending on the study, the tumors were between about 150 mm^3-about 800 mm^3 at the time of animal randomization into treatment groups (n=8-10 mice per group).
(§2) Control animals received 200 μL injections of vehicle only.
(§3) Evaluation of the results included statistical analysis of differences in tumor size between test and control groups at the end of each treatment period. Group means were compared using a one-way ANOVA. If the ANOVA was significant, i.e., p≦0.05, a Dunnett's multiple comparison test was used to determine which groups were different. Only animals surviving to the completion of the treatment period were included in the analysis.

[2] = cited from earlier work
[3] = tested on: A549 human lung tumor xenografts; assay: A549 human lung tumor xenograft model; assay type: in vivo, SCID mice; details: for Reduction in Tumor Volume (% decrease relative to control), positive control: 20 mg/Kg (M, W, F); for Reduction in Tumor Volume (% decrease relative to control), positive control / Tumor volume compared to control animals, single agent alone: 2 week treatment; for Tumor volume compared to control animals, single agent alone: female SCID mice
Procedure: as §1, §2, §3
(§4) A549 cells were injected subcutaneously into female SCID mice and the tumor volumes were allowed to reach about 400 mm^3 prior to animal randomization. Animals were administered one of the above combinations or saline vehicle control intraperitoneally five times per week (each day, Monday through Friday) for two weeks.
as §4, with “male” for “female”, “drug combination” for “one of the above combinations”, “or” for “or saline”, “for three weeks. Treatment was stopped for a one week recovery period, then continued as before for an additional” for “for”

[4] = gastrointestinal tract; cited from earlier work
[5] = mouse, in vivo
Procedure: Unless otherwise stated, drugs were administered daily Monday to Friday. Paclitaxel was administered 3 days per week, Monday, Wednesday, and Friday only. All drugs were administered by intraperitoneal injection in a volume of 100 μL/25 grams. Animals undergoing combination therapy received two individual injections for a total of 200 μL per mouse. Control animals received 200 μL injections of vehicle only.

[6] = tested on: endo-exonuclease; details: PCT Publication No. WO 01/35935; cited from earlier work
[7] = tested on: phosphatases of regenerating liver (PRL); details: cited from earlier work
[8] = biological target: T1, protein tyrosine phosphatase 1B (PTP1B) (Homo sapiens, UniProt P18031); details: cited from earlier work
T1 sequence (P18031 1-435): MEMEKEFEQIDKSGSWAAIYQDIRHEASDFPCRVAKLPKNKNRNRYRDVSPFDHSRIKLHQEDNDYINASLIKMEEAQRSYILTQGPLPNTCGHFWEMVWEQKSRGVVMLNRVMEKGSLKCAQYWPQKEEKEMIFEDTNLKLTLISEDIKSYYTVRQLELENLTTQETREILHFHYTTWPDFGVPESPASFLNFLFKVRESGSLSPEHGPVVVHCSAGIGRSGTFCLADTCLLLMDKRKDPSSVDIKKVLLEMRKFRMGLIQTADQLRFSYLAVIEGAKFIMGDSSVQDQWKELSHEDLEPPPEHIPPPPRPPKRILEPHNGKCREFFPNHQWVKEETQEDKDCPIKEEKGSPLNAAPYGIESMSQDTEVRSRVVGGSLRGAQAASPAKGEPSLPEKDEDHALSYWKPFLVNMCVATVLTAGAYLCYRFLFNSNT

[9] = mice, single intraperitoneal injection 10 mg/kg; cited from earlier work

O=c1[nH]cc(F)c(=O)[nH]1 [5-FU, 5-fluorouracil]
Reduction in Tumor Volume (% decrease relative to control), positive control [1]: 47%

N=C(N)c1ccc(OCCCCCOc2ccc(C(=N)N)cc2)cc1 [Pentamidine isethionate, 4,4′-diamidino-diphenoxypentane di(β-hydroxyethanesulfonate)]
Solubility ([2]; ether, acetone, and chloroform): insoluble
Solubility ([2]; water and glycerin): soluble

CC(=O)O[C@H]1C(=O)[C@@]2(C)[C@H]([C@H](OC(=O)c3ccccc3)[C@]3(O)C[C@H](OC(=O)[C@H](O)[C@@H](NC(=O)c4ccccc4)c4ccccc4)C(C)=C1C3(C)C)[C@]1(OC(C)=O)CO[C@@H]1C[C@@H]2O [Taxol, paclitaxel]
Reduction in Tumor Volume (% decrease relative to control), positive control [3]: 24% and 29%
Reduction in Tumor Volume (% decrease relative to control), positive control ([3]; listed as paclitaxel): 24%
Tumor volume less than vehicle control ([3]; 20 mg/Kg, end of first treatment period (3 weeks), male SCID mice): 27%

CN(C)CCCN1c2ccccc2Sc2ccc(Cl)cc21 [chlorpromazine]
Tumor volume compared to control animals, single agent alone [3]: no decrease in tumor volumes
Absorption [4]: readily absorbed
Time to sedation after administration ([5]; SCID Hsd:ICR(CD-1), ip): ≤ 10 min
Sedation and hypothermia at lower doses [5]: reduced period of sedation and associated hypothermia

N=C(N)c1ccc(OCCCCCOc2ccc(C(=N)N)cc2)cc1 [pentamidine]
Inhibition of endo-exonuclease activity [6]: inhibit the activity
Inhibition of PRL [7]: potent inhibitor
Tumor volume compared to control animals, single agent alone [3]: no decrease in tumor volumes
Inhibition of PTP1B [8]: effective inhibitor
Tissue distribution [9]: concentration in the kidneys was the highest, followed by that in the liver
